Test results as given in patent US20250228856A1, “USE OF HEMATOPOIETIC CELL KINASE (HCK) INHIBITOR IN PREPARATION OF DRUG FOR TREATING PULMONARY FIBROSIS” (Institute of Basic Medical Sciences, CAMS, priority 2024, published 2025).

Columns and labels:
Assay type in all cases: in vivo, C57BL/6J mice
IPF mice [1] = test: Transcription levels of inflammatory factors in lung tissue of IPF mice (qPCR); conditions: BLM IPF mice, 30 mg/kg i.p., 3 weeks
Description: (§1) Male C57BL/6J mice (aged 8 weeks and weighing 25-30 g) were selected and housed in an SPF grade laboratory animal room, and the model of IPF was constructed by one-time intratracheal instillation of bleomycin (BLM); the mice were divided into four groups (n=9): • 1) PBS group+vehicle group: PBS (the volume consistent with the subsequent BLM infusion volume) was given by tracheal instillation; RK-20449 solvent PBS was injected intraperitoneally; • 2) PBS+RK-20449 group: intratracheal instillation of PBS (volume consistent with subsequent BLM infusion volume); intraperitoneal injection of RK-20449 (30 mg/kg, once a day, 6 d a week, for 3 weeks); • 3) BLM+vehicle group: BLM solution (2 U/kg) was given tracheal infusion; RK-20449 solvent PBS was injected intraperitoneally; and • 4) BLM+RK-20449 group: BLM solution (2 U/kg) was given tracheal infusion, and RK-20449 (30 mg/kg, once a day, 6 d a week, for 3 weeks) was injected intraperitoneally.
(§2) All mice were sacrificed after 21 d of administration, and the corresponding samples were collected for detection.
(§3) Lung tissue RNA of all mice was extracted; cDNA was obtained by using a reverse transcription kit (KR103, Tiangen Biotechnology, Beijing, China); qPCR was conducted by using a SYBR Green I Q-PCR Kit (TransGen Biotech, Beijing China); data collection and analysis were conducted by Bio-Rad IQ5 system.

IPF mice [2] = test: ELISA of inflammatory factors in BALF of IPF mice; conditions: BLM IPF mice, 30 mg/kg i.p., 3 weeks
Description: as §1, §2
Concentrations of inflammatory factors IL-1β and IL-6 in mouse BALF were detected by using ELISA kits.

IPF mice [3] = test: Transcription levels of fibrosis factors in lung tissue of IPF mice (qPCR); conditions: BLM IPF mice, 30 mg/kg i.p., 3 weeks
Description: as §1, §2, §3

IPF mice [4] = test: Pulmonary function test in IPF mice; conditions: BLM IPF mice, 30 mg/kg i.p., 3 weeks
Description: as §1, §2
Anesthetized mice were fixed on an experimental table, and mouse lung function was detected by a pulmonary function testing system (DSI Buxco, USA). Before experiment, the mouse was anesthetized by intraperitoneal injection of 0.4 mL/100 g 2% pentobarbital, tracheotomy was performed, a trachea cannula was inserted, and a ventilator was connected. Next, FRC, PV, FV, and RC were automatically tested by a PET system. Indicators closely related to lung function changes in pulmonary fibrosis for statistical analysis, including lung volume indicators such as IC, and pulmonary ventilation function tests such as RI, Cdyn, and Cchord.

IPF mice [5] = test: HYP content and degree of lesions in lung tissue of IPF mice; conditions: BLM IPF mice, 30 mg/kg i.p., 3 weeks
Description: as §1, §2
30 mg of mouse lung tissue was detected using an HYP kit (NBP2-59747, Novus Biologicals, Littleton, CO, USA).

IPF mice [6] = test: Body weight and survival rate of IPF mice; conditions: BLM IPF mice, 30 mg/kg i.p., 3 weeks
Description: as §1, §2
The mice in each group were weighed, and the death of the mice was observed and counted.

Hck = Hck transcription level in lung tissue of IPF mice (qPCR); conditions: BLM (2 U/kg) IPF mice; RK-20449 30 mg/kg i.p. once a day, 6 d a week, 3 weeks; FIG. 1
Description: as §1, §2, §3

CN1CCN(C2CCC(n3cc(-c4ccc(Oc5ccccc5)cc4)c4c(N)ncnc43)CC2)CC1 (stereo not shown) [RK-20449]
alleviated: degree of lesions (IPF mice [5]) | weight loss of IPF mice (IPF mice [6]; FIG. 2A)
decreased: transcription level of Il-1β (IPF mice [1]; FIG. 3A) | transcription level of Il-6 (IPF mice [1]; FIG. 3B) | transcription level of Tnf-α (IPF mice [1]; FIG. 3C) | concentration of IL-1β in the alveolar lavage fluid (IPF mice [2]; FIG. 3D) | concentration of IL-6 in the alveolar lavage fluid (IPF mice [2]; FIG. 3E) | transcription level of Col-I (IPF mice [3]; FIG. 4A) | transcription level of Fn-1 (IPF mice [3]; FIG. 4B) | hydroxyproline content in lung tissue (IPF mice [5]; lung tissue, FIG. 4C)
improved significantly: lung function: inspiratory resistance (RI) (IPF mice [4]; FIG. 2C) | lung function: dynamic compliance (Cdyn) (IPF mice [4]; FIG. 2D) | lung function: quasi-static compliance (Cchord) (IPF mice [4]; FIG. 2E) | lung function: inspiratory capacity (IC) (IPF mice [4]; FIG. 2F)
increased to a certain extent: survival rate (IPF mice [6]; FIG. 2B)
effectively inhibit: transcription level of Hck in the lung tissue (Hck)
